# Test results reported in patent US9695155B2, “Herbicidal substituted pyrimidinyloxy benzene compounds” (E. I. DU PONT DE NEMOURS AND COMPANY, priority 2013, dated 2017).
# How the values were obtained:
# corn = experiment: Test E preemergence; type: in vivo, Zea mays; details: for Corn plant response rating: scale 0 to 100 (0 no effect, 100 complete control)
# Summary of the method: (§1)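 Compound in a non-phytotoxic solvent mixture with surfactant was applied preemergence to seeds in silt loam soil, or postemergence to plants 2 to 18 cm tall grown in peat-based potting medium. Plants were kept in a greenhouse for 14 to 21 days, then rated visually against untreated controls on a 0 (no effect) to 100 (complete control) scale.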
# johnsongrass = experiment: Test E preemergence; type: in vivo, Sorghum halepense; details: for Johnsongrass plant response rating: scale 0 to 100 (0 no effect, 100 complete control)
# Text: (§2) Seeds of plant species selected from corn (Zea mays), soybean (Glycine max), velvetleaf (Abutilon theophrasti), lambsquarters (Chenopodium album), wild poinsettia (Euphorbia heterophylla), palmer pigweed (Amaranthus palmeri), waterhemp (common waterhemp, Amaranthus rudis), surinam grass (Brachiaria decumbens), large (Lg) crabgrass (Digitaria sanguinalis), Brazilian crabgrass (Digitaria horizontalis), fall panicum (Panicum dichotomiflorum), giant foxtail (Setaria faberii), green foxtail (Setaria viridis), goosegrass (Eleusine indica), johnsongrass (Sorghum halepense), ragweed (common ragweed, Ambrosia elatior), barnyardgrass (Echinochloa crus-galli), sandbur (southern sandbur, Cenchrus echinatus), arrowleaf sida (Sida rhombifolia), Italian ryegrass (Lolium multiflorum), dayflower (Virginia (VA) dayflower, Commelina virginica), field bindweed (Convolvulus arvensis), morningglory (Ipomoea coccinea), nightshade (eastern black nightshade, Solanum ptycanthum), kochia (Kochia scoparia), yellow nutsedge (Cyperus esculentus), cocklebur (common cocklebur, Xanthium strumarium), smartweed (ladysthumb smartweed, and hairy beggarticks (Bidens pilosa), were planted into a silt loam soil and treated preemergence with test chemicals formulated in a non-phytotoxic solvent mixture which included a surfactant.
# (§3) At the same time, plants from these crop and weed species and also horseweed (Canada horseweed, Conyza canadensis), waterhemp_RES1, (ALS & Triazine resistant common waterhemp, Amaranthus rudis), and waterhemp_RES2, (ALS & HPPD resistant common waterhemp, Amaranthus rudis) were planted in pots containing Redi-Earth® planting medium (Scotts Company, 14111 Scottslawn Road, Marysville, Ohio 43041) comprising spaghnum peat moss, vermiculite, wetting agent and starter nutrients were treated with postemergence applications of test chemicals formulated in the same manner. Plants ranged in height from 2 to 18 cm for postemergence treatments (1- to 4-leaf stage). Treated plants and controls were maintained in a greenhouse for 14 to 21 days, after which time all species were compared to controls and visually evaluated. Plant response ratings, summarized in Table E, are based on a scale of 0 to 100 where 0 is no effect and 100 is complete control. A dash (-) response means no test result.
# sandbur = experiment: Test E postemergence; type: in vivo, Cenchrus echinatus; details: Cenchrus echinatus, post-emergence, read-out: Plant response rating, Sandbur
# Summary of the method: as §1
# kochia = experiment: Test E preemergence; type: in vivo, Kochia scoparia; details: for Kochia plant response rating: scale 0 to 100 (0 no effect, 100 complete control)
# Summary of the method: as §1
# lambsquarters = experiment: Test E preemergence; type: in vivo, Chenopodium album; details: for Lambsquarters plant response rating: scale 0 to 100 (0 no effect, 100 complete control)
# Text: as §2, §3
# nightshade = experiment: Test E preemergence; type: in vivo, Solanum ptycanthum; details: for Nightshade plant response rating: scale 0 to 100 (0 no effect, 100 complete control)
# Summary of the method: as §1
# surinam grass = experiment: Test E preemergence; type: in vivo, Brachiaria decumbens; details: for Surinam Grass plant response rating: scale 0 to 100 (0 no effect, 100 complete control)
# Summary of the method: as §1
# Brazilian crabgrass = experiment: Test E postemergence; type: in vivo, Digitaria horizontalis; details: Digitaria horizontalis, post-emergence, read-out: Plant response rating, Crabgrass, Brazil
# Text: as §2, §3
# waterhemp = experiment: Test E postemergence; type: in vivo, Amaranthus rudis; details: Amaranthus tuberculatus, post-emergence, read-out: Plant response rating, Waterhemp
# Text: as §2, §3
# [1] = system: waterhemp_RES2 (ALS & HPPD resistant common waterhemp); experiment: Test E postemergence; type: in vivo, Amaranthus rudis; details: Amaranthus tuberculatus, post-emergence, read-out: Plant response rating, Waterhemp_RES2
# Text: as §2, §3
# [2] = 125 g ai/ha, scale 0 to 100, 0 no effect, 100 complete control
# [3] = 250 g ai/ha, scale 0 to 100, 0 no effect, 100 complete control
# [4] = Postemergence, 31 g ai/ha, scale 0 to 100
# [5] = Postemergence, 62 g ai/ha, scale 0 to 100
# [6] = Postemergence, 125 g ai/ha, scale 0 to 100
# [7] = postemergence, 16 g ai/ha, scale 0 to 100, 0 no effect, 100 complete control
# [8] = 8 g ai/ha, scale 0 to 100, 0 is no effect, 100 is complete control
compound,measurement,setting,value
"N#Cc1cccc(Oc2ncc(Cl)cn2)c1-n1cc(Br)cn1 [Compound 52, 2-(4-bromo-1H-pyrazol-1-yl)-3-[(5-chloro-2-pyrimidinyl)oxy]benzonitrile]",Corn plant response rating,corn; 16 g ai/ha,0
same,Corn plant response rating,corn; 31 g ai/ha,0
same,Corn plant response rating,corn; 62 g ai/ha,0
same,"Plant response rating, Corn",corn; [2],0
same,"Plant response rating, Corn",corn; [3],40
same,Johnsongrass plant response rating,johnsongrass; 16 g ai/ha,0
same,Johnsongrass plant response rating,johnsongrass; 31 g ai/ha,0
same,Johnsongrass plant response rating,johnsongrass; 62 g ai/ha,30
same,"Plant response rating, Johnsongrass",johnsongrass; [2],70
same,"Plant response rating, Johnsongrass",johnsongrass; [3],98
same,pest or weed control at 31 g/ha,sandbur; [4],10%
same,pest or weed control at 62 g/ha,sandbur; [5],25%
same,pest or weed control at 125 g/ha,sandbur; [6],20%
same,pest or weed control at 16 g/ha,sandbur; [7],15%
same,Kochia plant response rating,kochia; 31 g ai/ha,25
same,Kochia plant response rating,kochia; 62 g ai/ha,65
same,"Plant response rating, Kochia",kochia; [2],100
same,"Plant response rating, Kochia",kochia; [3],100
same,Lambsquarters plant response rating,lambsquarters; 16 g ai/ha,0
same,Lambsquarters plant response rating,lambsquarters; 31 g ai/ha,75
same,Lambsquarters plant response rating,lambsquarters; 62 g ai/ha,98
same,"Plant response rating, Lambsquarters",lambsquarters; [2],98
same,"Plant response rating, Lambsquarters",lambsquarters; [3],100
same,Nightshade plant response rating,nightshade; 16 g ai/ha,0
same,Nightshade plant response rating,nightshade; 31 g ai/ha,0
same,Nightshade plant response rating,nightshade; 62 g ai/ha,75
same,"Plant response rating, Nightshade",nightshade; [2],98
same,"Plant response rating, Nightshade",nightshade; [3],100
same,Surinam Grass plant response rating,surinam grass; 16 g ai/ha,0
same,Surinam Grass plant response rating,surinam grass; 31 g ai/ha,0
same,Surinam Grass plant response rating,surinam grass; 62 g ai/ha,0
same,"Plant response rating, Surinam Grass",surinam grass; [2],10
same,"Plant response rating, Surinam Grass",surinam grass; [3],10
same,pest or weed control at 31 g/ha,Brazilian crabgrass; [4],30%
same,pest or weed control at 62 g/ha,Brazilian crabgrass; [5],30%
same,pest or weed control at 125 g/ha,Brazilian crabgrass; [6],40%
same,pest or weed control at 16 g/ha,Brazilian crabgrass; [7],15%
same,pest or weed control at 31 g/ha,waterhemp; [4],70%
same,pest or weed control at 62 g/ha,waterhemp; [5],75%
same,pest or weed control at 125 g/ha,waterhemp; [6],95%
same,pest or weed control at 16 g/ha,waterhemp; [7],65%
same,pest or weed control at 31 g/ha,[1]; [4],90%
same,pest or weed control at 62 g/ha,[1]; [5],95%
same,pest or weed control at 125 g/ha,[1]; [6],90%
same,pest or weed control at 16 g/ha,[1]; [7],80%
Cc1cnc(Oc2cccc(C#N)c2-n2cc(C(F)(F)F)cn2)nc1 [Compound 180],Corn plant response rating,corn; 31 g ai/ha,0
same,Corn plant response rating,corn; 62 g ai/ha,15
same,"Plant response rating, Corn",corn; [2],40
same,"Plant response rating, Corn",corn; [3],65
same,Johnsongrass plant response rating,johnsongrass; 31 g ai/ha,0
same,Johnsongrass plant response rating,johnsongrass; 62 g ai/ha,50
same,"Plant response rating, Johnsongrass",johnsongrass; [2],75
same,"Plant response rating, Johnsongrass",johnsongrass; [3],80
same,Kochia plant response rating,kochia; 31 g ai/ha,0
same,Kochia plant response rating,kochia; 62 g ai/ha,20
same,"Plant response rating, Kochia",kochia; [2],100
same,"Plant response rating, Kochia",kochia; [3],100
same,Lambsquarters plant response rating,lambsquarters; 31 g ai/ha,98
same,Lambsquarters plant response rating,lambsquarters; 62 g ai/ha,100
same,"Plant response rating, Lambsquarters",lambsquarters; [2],100
same,"Plant response rating, Lambsquarters",lambsquarters; [3],100
same,Nightshade plant response rating,nightshade; 31 g ai/ha,75
same,Nightshade plant response rating,nightshade; 62 g ai/ha,98
same,"Plant response rating, Nightshade",nightshade; [2],98
same,"Plant response rating, Nightshade",nightshade; [3],100
same,Surinam Grass plant response rating,surinam grass; 31 g ai/ha,10
same,Surinam Grass plant response rating,surinam grass; 62 g ai/ha,25
same,"Plant response rating, Surinam Grass",surinam grass; [2],75
same,"Plant response rating, Surinam Grass",surinam grass; [3],100
NC(=S)c1cccc(Oc2ncc(Cl)cn2)c1-n1cc(Cl)cn1 [Compound 292],"Plant response rating, Corn",corn; [8],0
same,Corn plant response rating,corn; 16 g ai/ha,0
same,Corn plant response rating,corn; 31 g ai/ha,0
same,Corn plant response rating,corn; 62 g ai/ha,0
same,"Plant response rating, Corn",corn; [2],0
same,"Plant response rating, Johnsongrass",johnsongrass; [8],0
same,Johnsongrass plant response rating,johnsongrass; 31 g ai/ha,15
same,Johnsongrass plant response rating,johnsongrass; 62 g ai/ha,20
same,"Plant response rating, Johnsongrass",johnsongrass; [2],35
same,"Plant response rating, Kochia",kochia; [8],0
same,Kochia plant response rating,kochia; 31 g ai/ha,0
same,Kochia plant response rating,kochia; 62 g ai/ha,70
same,"Plant response rating, Kochia",kochia; [2],98
same,"Plant response rating, Lambsquarters",lambsquarters; [8],0
same,Lambsquarters plant response rating,lambsquarters; 31 g ai/ha,0
same,Lambsquarters plant response rating,lambsquarters; 62 g ai/ha,25
same,"Plant response rating, Lambsquarters",lambsquarters; [2],100
same,"Plant response rating, Nightshade",nightshade; [8],0
same,Nightshade plant response rating,nightshade; 31 g ai/ha,5
same,Nightshade plant response rating,nightshade; 62 g ai/ha,70
same,"Plant response rating, Nightshade",nightshade; [2],80
same,"Plant response rating, Surinam Grass",surinam grass; [8],0
same,Surinam Grass plant response rating,surinam grass; 31 g ai/ha,0
same,Surinam Grass plant response rating,surinam grass; 62 g ai/ha,10
same,"Plant response rating, Surinam Grass",surinam grass; [2],20
